From patent publication US10695337B2, “Piperidin-4-yl azetidine derivatives as JAK1 inhibitors” (Incyte Corporation, priority 2010, dated 2020)

These molecules were tested against human JAK1 (a.a. 837-1142) (assay: In vitro JAK kinase assay (HTRF, phosphorylation of a biotinylated peptide), JAK1). Details: measured at 1 mM ATP; JAK2 IC50 / JAK1 IC50.
Assay type: biochemical
Summary of the method: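 N-terminally His-tagged catalytic domains, baculovirus-expressed in insect cells and purified, were used as enzyme. Reactions ran 1 hr at room temperature and were stopped with a mix of 45 mM EDTA, 300 nM SA-APC and 6 nM Eu-Py20. The HTRF signal was read after 40 min of antibody binding.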

| SMILES | IC50 Ratio JAK2/JAK1 |
| --- | --- |
| COc1ccc(C(=O)N2CCC(N3CC(CC#N)(n4cc(-c5ncnc6[nH]ccc56)cn4)C3)CC2)cc1F [Example 5, {1-[1-(3-fluoro-4-methoxybenzoyl)piperidin-4-yl]-3-[4-(7H-pyrrolo[2,3-d]pyrimidin-4-yl)-1H-pyrazol-1-yl]azetidin-3-yl}acetonitrile] | 12.0 |
| COc1ccc(OC)c(NC(=O)N2CCC(N3CC(CC#N)(n4cc(-c5ncnc6[nH]ccc56)cn4)C3)CC2)c1 [Example 186, 4-{3-(cyanomethyl)-3-[4-(7H-pyrrolo[2,3-d]pyrimidin-4-yl)-1H-pyrazol-1-yl]azetidin-1-yl}-N-(2,5-dimethoxyphenyl)piperidine-1-carboxamide] | 5.5 |
| Cc1ccc(NC(=O)N2CCC(N3CC(CC#N)(n4cc(-c5ncnc6[nH]ccc56)cn4)C3)CC2)c(F)n1 [Example 200, 4-{3-(cyanomethyl)-3-[4-(7H-pyrrolo[2,3-d]pyrimidin-4-yl)-1H-pyrazol-1-yl]azetidin-1-yl}-N-(2-fluoro-6-methylpyridin-3-yl)piperidine-1-carboxamide] | 6.7 |
| N#CCC1(n2cc(-c3ncnc4[nH]ccc34)cn2)CN(C2CCN(Cc3cccc(Oc4ccccc4)c3)CC2)C1 [Example 233, {1-[1-(3-phenoxybenzyl)piperidin-4-yl]-3-[4-(7H-pyrrolo[2,3-d]pyrimidin-4-yl)-1H-pyrazol-1-yl]azetidin-3-yl}acetonitrile] | 2.2 |
| N#CCC1(n2cc(-c3ncnc4[nH]ccc34)cn2)CN(C2CCN(C(=O)c3ccc(-c4cccnc4)c(F)c3)CC2)C1 [Example 123, {1-[1-(3-fluoro-4-pyridin-3-ylbenzoyl)piperidin-4-yl]-3-[4-(7H-pyrrolo[2,3-d]pyrimidin-4-yl)-1H-pyrazol-1-yl]azetidin-3-yl} acetonitrile] | 3.8 |
| CCN(C)Cc1cc(C(=O)N2CCC(N3CC(CC#N)(n4cc(-c5ncnc6[nH]ccc56)cn4)C3)CC2)nc(C(F)(F)F)n1 [Example 374] | 50 |
| CS(=O)(=O)N1CCC(N2CC(CC#N)(n3cc(-c4c(C#N)cnc5[nH]ccc45)cn3)C2)CC1 [Example 357, 4-(1-{3-(Cyanomethyl)-1-[1-(methylsulfonyl)piperidin-4-yl]azetidin-3-yl}-1H-pyrazol-4-yl)-1H-pyrrolo[2,3-b]pyridine-5-carbonitrile] | 3.8 |
| N#CCC1(n2ccc(-c3ncnc4[nH]ccc34)c2)CN(C2CCN(C(=O)c3cc(C(F)(F)F)ccc3F)CC2)C1 [Example 273, {1-{1-[2-fluoro-5-(trifluoromethyl)benzoyl]piperidin-4-yl}-3-[3-(7H-pyrrolo[2,3-d]pyrimidin-4-yl)-1H-pyrrol-1-yl]azetidin-3-yl}acetonitrile] | 4.4 |
| Cc1csc(NC(=O)N2CCC(N3CC(CC#N)(n4cc(-c5ncnc6[nH]ccc56)cn4)C3)CC2)n1 [Example 191, 4-{3-(cyanomethyl)-3-[4-(7H-pyrrolo[2,3-d]pyrimidin-4-yl)-1H-pyrazol-1-yl]azetidin-1-yl}-N-(4-methyl-1,3-thiazol-2-yl)piperidine-1-carboxamide] | 1.4 |
| N#CCC1(n2cc(-c3ncnc4[nH]ccc34)cn2)CN(C2CCN(C(=O)c3ccc(-c4nc5ccccc5o4)c(F)c3)CC2)C1 [Example 137, {1-{1-[4-(1,3-benzoxazol-2-yl)-3-fluorobenzoyl]piperidin-4-yl}-3-[4-(7H-pyrrolo[2,3-d]pyrimidin-4-yl)-1H-pyrazol-1-yl]azetidin-3-yl} acetonitrile] | 6.0 |
| N#CCC1(n2cc(-c3c(F)cnc4[nH]ccc34)cn2)CN(C2CCN(C(=O)c3ccc(C#N)cc3F)CC2)C1 [Example 317, 4-[(4-{3-(cyanomethyl)-3-[4-(5-fluoro-1H-pyrrolo[2,3-b]pyridin-4-yl)-1H-pyrazol-1-yl]azetidin-1-yl}piperidin-1-yl)carbonyl]-3-fluorobenzonitrile] | 4.5 |
| N#CCC1(n2cc(-c3ncnc4[nH]ccc34)cn2)CN(C2CCN(C(=O)c3c(F)cc(C#N)cc3F)CC2)C1 [Example 83, 4-[(4-{3-(cyanomethyl)-3-[4-(7H-pyrrolo[2,3-d]pyrimidin-4-yl)-1H-pyrazol-1-yl]azetidin-1-yl}piperidin-1-yl)carbonyl]-3,5-difluorobenzonitrile] | 5.8 |
| CS(=O)(=O)N1CCC(N2CC(CC#N)(n3cc(-c4c(F)cnc5[nH]ccc45)cn3)C2)CC1 [Example 355, {3-[4-(5-Fluoro-1H-pyrrolo[2,3-b]pyridin-4-yl)-1Hpyrazol-1-yl]-1-[1-(methylsulfonyl)piperidin-4-yl]azetidin-3-yl}acetonitrile] | 3.1 |
| Cc1ncccc1NC(=O)N1CCC(N2CC(CC#N)(n3cc(-c4ncnc5[nH]ccc45)cn3)C2)CC1 [Example 198, 4-{3-(cyanomethyl)-3-[4-(7H-pyrrolo[2,3-d]pyrimidin-4-yl)-1H-pyrazol-1-yl]azetidin-1-yl}-N-(2-methylpyridin-3-yl)piperidine-1-carboxamide] | 4.4 |
| N#CCC1(n2cc(-c3c(F)cnc4[nH]ccc34)cn2)CN(C2CCN(C(=O)Nc3ncccc3C(F)(F)F)CC2)C1 [Example 329, 4-{3-(cyanomethyl)-3-[4-(5-fluoro-1H-pyrrolo[2,3-b]pyridin-4-yl)-1H-pyrazol-1-yl]azetidin-1-yl}-N-[3-(trifluoromethyl)pyridin-2-yl]piperidine-1-carboxamide] | 4.5 |
| N#CCC1(n2ccc(-c3ncnc4[nH]ccc34)c2)CN(C2CCN(C(=O)c3cnc(C(F)(F)F)cn3)CC2)C1 [Example 347, [3-[3-(7H-Pyrrolo[2,3-d]pyrimidin-4-yl)-1H-pyrrol-1-yl]-1-(1-{[5-(trifluoromethyl)pyrazin-2-yl]carbonyl}piperidin-4-yl)azetidin-3-yl]acetonitrile] | 2.7 |
| N#CCC1(n2ccc(-c3ncnc4[nH]ccc34)c2)CN(C2CCN(C(=O)Nc3ccc(Cl)cc3C#N)CC2)C1 [Example 293, 4-{3-(cyanomethyl)-3-[3-(7H-pyrrolo[2,3-d]pyrimidin-4-yl)-1H-pyrrol-1-yl]azetidin-1-yl}-N-(4-chloro-2-cyanophenyl)piperidine-1-carboxamide] | 3.4 |
| N#CCC1(n2cc(-c3c(C#N)cnc4[nH]ccc34)cn2)CN(C2CCN(C(=O)c3cc(Br)ccc3Br)CC2)C1 [Example 335] | 2.4 |
| N#CCC1(n2cc(-c3ncnc4[nH]ccc34)cn2)CN(C2CCN(C(=O)c3c(F)ccc(F)c3F)CC2)C1 [Example 47, {3-[4-(7H-pyrrolo[2,3-d]pyrimidin-4-yl)-1H-pyrazol-1-yl]-1-[1-(2,3,6-trifluorobenzoyl)piperidin-4-yl]azetidin-3-yl}acetonitrile] | 3.7 |
| N#CCC1(n2cc(-c3c(F)cnc4[nH]ccc34)cn2)CN(C2CCN(C(=O)c3ccc(O)c(F)c3)CC2)C1 [Example 322, {1-[1-(3-fluoro-4-hydroxybenzoyl)piperidin-4-yl]-3-[4-(5-fluoro-1H-pyrrolo[2,3-b]pyridin-4-yl)-1H-pyrazol-1-yl]azetidin-3-yl}acetonitrile] | 4.7 |
| N#CCC1(n2cc(-c3ncnc4[nH]ccc34)cn2)CN(C2CCN(C(=O)OCc3ccccc3)CC2)C1 [Example 389, benzyl 4-{3-(cyanomethyl)-3-[4-(7H-pyrrolo[2,3-d]pyrimidin-4-yl)-1H-pyrazol-1-yl]azetidin-1-yl}piperidine-1-carboxylate] | 6.5 |
| CC1(N2CC(CC#N)(n3cc(-c4ncnc5[nH]ccc45)cn3)C2)CCN(C(=O)c2cccc(F)c2)CC1 [Example 152, {1-[1-(3-Fluorobenzoyl)-4-methylpiperidin-4-yl]-3-[4-(7H-pyrrolo[2,3-d]pyrimidin-4-yl)-1H-pyrazol-1-yl]azetidin-3-yl}acetonitrile] | 4.0 |
| N#CCC1(n2cc(-c3ncnc4[nH]ccc34)cn2)CN(C2CCN(Cc3ccc(F)c(C#N)c3)CC2)C1 [Example 220, 5-[(4-{3-(cyanomethyl)-3-[4-(7H-pyrrolo[2,3-d]pyrimidin-4-yl)-1H-pyrazol-1-yl]azetidin-1-yl}piperidin-1-yl)methyl]-2-fluorobenzonitrile] | 4.4 |
| N#CCC1(n2cc(-c3ncnc4[nH]ccc34)cn2)CN(C2CCN(C(=O)c3ccc(-c4cccc5ccncc45)c(F)c3)CC2)C1 [Example 131, {1-[1-(3-fluoro-4-isoquinolin-8-ylbenzoyl)piperidin-4-yl]-3-[4-(7H-pyrrolo[2,3-d]pyrimidin-4-yl)-1H-pyrazol-1-yl]azetidin-3-yl} acetonitrile] | 8.1 |
| N#CCC1(n2cc(-c3ccnc4[nH]ccc34)cn2)CN(C2CCN(C(=O)Nc3ccccc3F)CC2)C1 [Example 309, 4-{3-(cyanomethyl)-3-[4-(1H-pyrrolo[2,3-b]pyridin-4-yl)-1H-pyrazol-1-yl]azetidin-1-yl}-N-(2-fluorophenyl)piperidine-1-carboxamide] | 5.3 |
| COc1ccsc1C(=O)N1CCC(N2CC(CC#N)(n3cc(-c4ncnc5[nH]ccc45)cn3)C2)CC1 [Example 81, {1-{1-[(3-methoxy-2-thienyl)carbonyl]piperidin-4-yl}-3-[4-(7H-pyrrolo[2,3-d]pyrimidin-4-yl)-1H-pyrazol-1-yl]azetidin-3-yl}acetonitrile] | 4.2 |
| N#CCC1(n2cc(-c3ncnc4[nH]ccc34)cn2)CN(C2CCN(C(=O)OCC3CCC3)CC2)C1 [Example 387, Cyclobutylmethyl 4-{3-(cyanomethyl)-3-[4-(7H-pyrrolo[2,3-d]pyrimidin-4-yl)-1H-pyrazol-1-yl]azetidin-1-yl}piperidine-1-carboxylate] | 9.7 |
| N#CCC1(n2ccc(-c3ncnc4[nH]ccc34)c2)CN(C2CCN(C(=O)c3c(F)ccc(F)c3F)CC2)C1 [Example 270, {3-[3-(7H-pyrrolo[2,3-d]pyrimidin-4-yl)-1H-pyrrol-1-yl]-1-[1-(2,3,6-trifluorobenzoyl)piperidin-4-yl]azetidin-3-yl}acetonitrile] | 6.1 |
